Data on three molecules can be found in ChEMBL document CHEMBL3853319, “Tyrosine Kinase Inhibitors. 20. Optimization of Substituted Quinazoline and Pyrido[3,4-d]pyrimidine Derivatives as Orally Active, Irreversible Inhibitors of the Epidermal Growth Factor Receptor Family” (J Med Chem, 2016).

Data set [1] can be described thus: Terminal half life in patient plasma with advanced solid tumor administered at 75 mg. To be noted: human, read-out: beta t1/2 (converted). In kind it is ADME.
A short description of data set [2]: Half life in overnight fasted cynomolgus monkey at 5 mg/kg/day, iv by LC/MS analysis. Conditions: in vivo. It is filed as ADME, organism-based, Macaca fascicularis.
Data set [3] in a line: in vitro. To be noted: rat, liver microsomes. In general terms: Liver microsomes are a subcellular fraction often used to study metabolism.
Data set [4] in a line: in vitro. Conditions: human, liver microsomes.
The nature of data set [5]: Half life in overnight fasted cynomolgus monkey at 25 mg/kg/day, po by LC/MS analysis. It is filed as ADME, organism-based, Macaca fascicularis. To be noted: in vivo.
A short description of data set [6]: in vivo. Conditions: Sprague-Dawley, rat, iv, 5 mg/kg.
Data set [7] is described as follows: in vivo. Conditions: Sprague-Dawley, rat, po, 50 mg/kg.
Data set [8] is described as follows: in vivo. Conditions: cynomolgus monkey, iv, 5 mg/kg.
A short description of data set [9]: in vivo. To be noted: Sprague-Dawley, rat, po, 50 mg/kg. The source holds these as a separate data set.
Data set [10] is described as follows: Half life in Beagle dog at 50 mg/kg/day, po by LC/MS analysis. To be noted: in vivo. In kind it is ADME, organism-based, Canis lupus familiaris.
Data set [11] in a line: in vivo. Conditions: Sprague-Dawley, rat, iv, 5 mg/kg. The source holds these as a separate data set.
The nature of data set [12]: in vitro. To be noted: human, hepatocytes.
Data set [13] is described as follows: in vivo. To be noted: beagle, dog, iv, 5 mg/kg.
Data set [14] can be described thus: in vivo. To be noted: beagle, dog, po, 50 mg/kg.
The nature of data set [15]: in vivo. Conditions: Sprague-Dawley, rat, iv, 5 mg/kg. The source holds these as a separate data set.
Data set [16] in a line: in vivo. Conditions: cynomolgus monkey, po, 25 mg/kg.
A short description of data set [17]: in vitro. Conditions: rat, hepatocytes.
Data set [18] in a line: in vivo. Conditions: cynomolgus monkey, po, 25 mg/kg. This is another data set of the same source.
A short description of data set [19]: in vivo. Conditions: Sprague-Dawley, rat, po, 50 mg/kg. This is another data set of the same source.
Data set [20] can be described thus: in vivo. To be noted: cynomolgus monkey, po, 25 mg/kg. The source holds these as a separate data set.
Data set [21] in a line: in vivo. Conditions: beagle, dog, iv, 5 mg/kg. The source holds these as a separate data set.
Data set [22] is described as follows: in vivo. Conditions: beagle, dog, iv, 5 mg/kg. The source holds these as a separate data set.
Data set [23] in a line: Half life in human plasma at 30 to 60 mg. It is filed as ADME, cell-free.
Data set [24] in a line: in vivo. To be noted: Sprague-Dawley, rat, po, 50 mg/kg. The source holds these as a separate data set.

Consider `CCOc1cc2ncc(C#N)c(Nc3ccc(F)c(Cl)c3)c2cc1NC(=O)/C=C/CN(C)C` [PELITINIB], for which the half-life in data set [1] was 21.7 h.
Usually Vd stands for a proportionality between amount in the body and measured concentration, not a real space. One may read the AUC as the area under the concentration-time curve, a measure of exposure. As a reminder, the clearance is the volume of plasma or blood freed of the substance per unit of time. In general, bioavailability refers to the share of a dose that reaches the circulation, judged against a reference dose that is usually intravenous. For orientation: Cmax means the maximum level reached in the sampled fluid or tissue. For `COc1cc2ncnc(Nc3ccc(F)c(Cl)c3)c2cc1NC(=O)/C=C/CN1CCCCC1` [DACOMITINIB ANHYDROUS], the half-life in data set [2] is 5.7 h; in data set [5], 12.1 h; in data set [10] it was 20.9 h; in the data set “in vivo [13]”, 15.9 h; in the data set “in vivo [15]” it was 9.8 h; in the data set “in vivo [19]” it was 19.4 h. In [23], the half-life is 59 h. Moreover, the half-life at 5 µM in “in vitro [3]” and in “in vitro [4]” was more than 0.667 h each time. Besides, the Vd at 144 h turned out to be 34.2 L/kg in “in vivo [6]” and 28 L/kg in “in vivo [21]”. Moreover, the AUC at 144 h in the data set “in vivo [7]” came out at 20500 ng·h/mL; in “in vivo [11]”, 2100 ng·h/mL; in the data set “in vivo [14]” it was 25200 ng·h/mL; in “in vivo [20]”, 5400 ng·h/mL. Besides, the clearance at 144 h came out at 44.1 mL/min/kg in the data set “in vivo [8]” and 24.4 mL/min/kg in “in vivo [22]”. The bioavailability at 144 h in the data set “in vivo [9]” was determined as 80%; in the data set “in vivo [16]”, 56%. Further, the half-life at 1 µM came to 4.15 h in “in vitro [12]” and 2.38 h in “in vitro [17]”. The maximum concentration (Cmax) at 144 h in the data set “in vivo [18]” worked out at 220 ng/mL; in the data set “in vivo [24]”, 630 ng/mL.
`COc1cc2ncnc(Nc3ccc(F)c(Cl)c3)c2cc1OCCCN1CCOCC1` [GEFITINIB]: the half-life at 5 µM in “in vitro [3]” and in the data set “in vitro [4]” was more than 0.667 h throughout. For the same molecule, the half-life at 1 µM in the data set “in vitro [12]” was found to be 3.75 h; in “in vitro [17]” it was 1.68 h.
